The source made the active and inactive calls. The calls are words filed in the database; no cut-off is given here.
Tests used:
Bombyx mori [1] = assay: Induction of precocious metamorphosis in newly molted fourth-instar larvae of Bombyx mori assessed as precocious metamorphosis measured after topical treatment; assay type: functional, organism-based
Bombyx mori [2] = assay: Induction of precocious metamorphosis in 24 hr old third-instar larvae of Bombyx mori assessed as precocious metamorphosis at 40 ug/larva topically by antijuvenile hormone activity assay; assay type: functional
Bombyx mori [3] = assay: Induction of precocious metamorphosis in 24 hr old third-instar larvae of Bombyx mori assessed as precocious metamorphosis at 10 ug/larva topically by antijuvenile hormone activity assay; assay type: functional
Bombyx mori [4] = assay: Induction of precocious metamorphosis in 24 hr old third-instar larvae of Bombyx mori assessed as precocious metamorphosis at 1 ug/larva topically by antijuvenile hormone activity assay; assay type: functional
Bombyx mori [5] = assay: Induction of precocious metamorphosis in 24 hr old third-instar larvae of Bombyx mori assessed as precocious metamorphosis at 200 ppm dietary administration by antijuvenile hormone activity assay; assay type: functional
Bombyx mori [6] = assay: Induction of precocious metamorphosis in 24 hr old third-instar larvae of Bombyx mori assessed as precocious metamorphosis at 50 ppm dietary administration by antijuvenile hormone activity assay; assay type: functional

CCCCC(COc1ccc(C(=O)OCC)cc1)Oc1ccc(C)cc1 (stereo not given)
Activity (Bombyx mori [1]): inactive | Activity (Bombyx mori [2]): 58% | Activity (Bombyx mori [3]): 45% | Activity (Bombyx mori [4]): 5%

CCCCC(COc1ccc(C(=O)O)cc1)Oc1ccccc1 (stereo not given)
Activity (Bombyx mori [5]): 0% | Activity (Bombyx mori [6]): 0%

CCCCC(COc1ccc(C(=O)OCC)cc1)Oc1ccncc1 (stereo not given)
Activity (Bombyx mori [1]): inactive | Activity (Bombyx mori [3]): 0% | Activity (Bombyx mori [4]): 0%

CCCCC(COc1ccc(C(=O)OCC)cc1)Oc1cccc(Cl)c1 (stereo not given)
Activity (Bombyx mori [1]): inactive | Activity (Bombyx mori [2]): 75% | Activity (Bombyx mori [3]): 45% | Activity (Bombyx mori [4]): 25%

CCCCC(COc1ccc(C(=O)OCC)cc1)Oc1ccccc1C (stereo not given)
Activity (Bombyx mori [1]): inactive | Activity (Bombyx mori [3]): 10% | Activity (Bombyx mori [4]): 0%

CCCCC(COc1ccc(C(=O)OCC)cc1)Oc1ccc(C)nc1 (stereo not given)
Activity (Bombyx mori [1]): inactive | Activity (Bombyx mori [2]): 75% | Activity (Bombyx mori [3]): 20% | Activity (Bombyx mori [4]): 20%

CCCCC(COc1ccc(C(=O)OCC)cc1)Oc1ccc(Cl)cc1 (stereo not given)
Activity (Bombyx mori [1]): inactive | Activity (Bombyx mori [3]): 30% | Activity (Bombyx mori [4]): 0%

CCCCC(COc1ccc(C(=O)OCC)cc1)Oc1cccc(C)c1 (stereo not given)
Activity (Bombyx mori [1]): inactive | Activity (Bombyx mori [2]): 55% | Activity (Bombyx mori [3]): 5% | Activity (Bombyx mori [4]): 0%

CCCCC(COc1ccc(C(=O)OCC)cc1)Oc1ccccc1Cl (stereo not given)
Activity (Bombyx mori [1]): inactive | Activity (Bombyx mori [3]): 0% | Activity (Bombyx mori [4]): 0%

CCCCC(COc1ccc(C(=O)OCC)cc1)Oc1ccccc1 (stereo not given)
Activity (Bombyx mori [5]): 75% | Activity (Bombyx mori [6]): 25% | Activity (Bombyx mori [1]): inactive | Activity (Bombyx mori [2]): 70% | Activity (Bombyx mori [3]): 66% | Activity (Bombyx mori [4]): 32%

CCCCC(COc1ccc(C(=O)OCC)cc1)Oc1cccnc1 (stereo not given)
Activity (Bombyx mori [1]): inactive | Activity (Bombyx mori [2]): 57% | Activity (Bombyx mori [3]): 47% | Activity (Bombyx mori [4]): 10%

— ChEMBL document CHEMBL3046636, “Synthesis and anti-juvenile hormone activity of ethyl 4-(2-aryloxyhexyloxy)benzoates” (2006)
